Source: PubChem BioAssay AID651798 (Broad Institute, 2012)
Active and inactive are the calls of the source.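 How the source made its calls: active means fitted AC50 at or below twice the top valid dose, with signal falling as dose rises; inconclusive means flat fit between -30 and -70%, or poor fit; inactive means the rest, including rising effects.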

Target: Kelch-like ECH-associated protein 1 (Homo sapiens) (UniProt Q14145)
Test: Keap1-Nrf2 protein-protein interaction inhibitors, dose response, biochemical, fluorescence polarization, dry powder samples (AID 651798)
Conditions: Keap1 Kelch/FITC-Nrf2 peptide fluorescence polarization; at 50 µM (top of the series)

Chain of Kelch-like ECH-associated protein 1 (Homo sapiens) (Q14145 whole entry, looked up): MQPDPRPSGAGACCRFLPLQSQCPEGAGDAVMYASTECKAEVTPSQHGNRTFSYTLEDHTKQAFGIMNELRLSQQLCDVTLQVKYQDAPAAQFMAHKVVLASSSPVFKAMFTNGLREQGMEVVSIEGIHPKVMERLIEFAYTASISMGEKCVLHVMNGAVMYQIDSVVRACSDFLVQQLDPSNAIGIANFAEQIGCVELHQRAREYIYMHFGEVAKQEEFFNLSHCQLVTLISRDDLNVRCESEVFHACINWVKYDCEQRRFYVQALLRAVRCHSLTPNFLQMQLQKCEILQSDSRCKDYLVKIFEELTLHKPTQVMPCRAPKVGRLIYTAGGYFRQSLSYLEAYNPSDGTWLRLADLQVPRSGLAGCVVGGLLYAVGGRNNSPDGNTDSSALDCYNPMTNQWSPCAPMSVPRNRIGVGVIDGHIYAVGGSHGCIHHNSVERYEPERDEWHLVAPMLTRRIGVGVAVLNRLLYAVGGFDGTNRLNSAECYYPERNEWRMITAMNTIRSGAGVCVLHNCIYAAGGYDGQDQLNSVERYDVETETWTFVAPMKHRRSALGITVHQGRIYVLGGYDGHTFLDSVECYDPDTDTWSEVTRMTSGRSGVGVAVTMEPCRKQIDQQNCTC

Activity change, negative = inhibition, inactive:
O=C(NC[C@@H]1c2ccccc2CCN1C(=O)[C@@H]1CCCC[C@@H]1C(=O)O)c1ccc(CCl)cc1
CC(C)CNc1nc(NS(=O)(=O)c2ccccc2)c2ccccc2n1
Cc1cc(C)c(S(=O)(=O)Nc2cc(C(C(=O)OCc3ccccc3)C(=O)OCc3ccccc3)c(O)c3ccccc23)c(C)c1
C=CC(=O)NC[C@@H]1c2ccccc2CCN1C(=O)[C@@H]1CCCC[C@@H]1C(=O)O
O=C(O)CCC(=O)N1CCc2ccccc2C1CN1C(=O)c2ccccc2C1=O (centres undefined)
CCOC(=O)Cc1nc(NS(=O)(=O)c2c(C)cc(C)cc2C)c2ccccc2n1
O=C(O)C1CCCCC1C(=O)N1CCc2ccccc2[C@H]1C(=O)NC12CC3CC(CC(C3)C1)C2 (some centres undefined)
C[C@H](NC(=O)C1CCCC[C@H]1C(=O)O)c1ccccc1 (mixture of isomers)
O=C(NCCCN1CCOCC1)c1ccccc1C(=O)NC[C@@H]1c2ccccc2CCN1C(=O)C1CCCCC1C(=O)O (some centres undefined)
O=C(NC[C@@H]1c2ccccc2CCN1C(=O)[C@@H]1CCCC[C@@H]1C(=O)O)c1ccccc1CO
COC(=O)C1CCCCC1C(=O)N1CCc2ccccc2C1CN1C(=O)c2ccccc2C1=O (centres undefined)
O=C(O)C1CCCCC1C(=O)NCC1c2ccccc2CCN1C(=O)Cc1ccccc1 (centres undefined)
COc1ccc(CCN=C2C=C(NS(=O)(=O)c3c(C)cc(C)cc3C)c3ccccc3C2=O)cc1
COC(=O)[C@@H]1CCCC[C@@H]1C(=O)N1CCc2ccccc2[C@H]1CN1C(=O)c2ccccc2C1=O
O=C(NC[C@@H]1c2ccccc2CCN1C(=O)[C@@H]1CCCC[C@@H]1C(=O)O)c1ccccc1
CCOC(=O)C(C(=O)OCC)c1cc(CN2C(=O)c3ccccc3C2=O)c2ccccc2n1
Cc1cc(C)c(S(=O)(=O)Nc2ncnc3ccccc23)c(C)c1
O=C(Oc1cc(CN2C(=O)c3ccccc3C2=O)c2ccccc2[n+]1[O-])c1cccc(Cl)c1
O=C1c2ccccc2C(=O)N1CC1=NCCc2ccccc21
O=C1c2ccccc2C(=O)N1C[C@H]1NCCc2ccccc21
O=C(O)[C@H]1CCCC[C@H]1C(=O)N1CCc2ccccc2[C@H]1CNS(=O)(=O)c1ccccc1
O=C1c2ccccc2C(=O)N1C[C@@H]1c2ccccc2CCN1C(=O)C1CCCCC1
O=S(=O)(Nc1nc(NCC2CCCCC2)nc2ccccc12)c1ccccc1
Cc1ccc(S(=O)(=O)NC(=O)[C@@H]2c3ccccc3CCN2C(=O)[C@@H]2CCCC[C@@H]2C(=O)O)cc1
COc1ccccc1CCNC(=O)[C@@H]1c2ccccc2CCN1C(=O)C1CCCCC1C(=O)O (some centres undefined)
O=C1c2ccccc2C(=O)N1C[C@@H]1c2ccccc2CCN1C(=O)OCc1ccccc1
Cc1cc(C)c(S(=O)(=O)Nc2nc(C(C(=O)OC(C)C)C(=O)C(F)(F)F)nc3ccccc23)c(C)c1 (centres undefined)
O=C(O)[C@H]1CCCC[C@H]1C(=O)NC(CN1C(=O)c2ccccc2C1=O)c1ccccc1 (some centres undefined)
O=C(O)CCCC(=O)N1CCc2ccccc2C1CN1C(=O)c2ccccc2C1=O (centres undefined)
O=C(NC[C@@H]1c2ccccc2CCN1C(=O)[C@@H]1CCCC[C@@H]1C(=O)O)OCC1c2ccccc2-c2ccccc21
O=C(O)[C@H]1CCCC[C@H]1C(=O)N1CCc2ccccc2[C@H]1CNS(=O)(=O)c1ccc([N+](=O)[O-])cc1
O=C(O)C1CCCCC1C(=O)Nc1ccccc1CN1C(=O)c2ccccc2C1=O (centres undefined)
O=C(O)[C@H]1CCCC[C@H]1C(=O)N1CCc2ccccc2C1CCN1C(=O)c2ccccc2C1=O (some centres undefined)
O=C(O)c1ccccc1C(=O)N1CCc2ccccc2C1CN1C(=O)c2ccccc2C1=O (centres undefined)
CCOC(=O)C(C(=O)OCC)c1nc(NS(=O)(=O)c2c(C)cc(C)cc2C)c2ccccc2n1
C[C@@H](NC(=O)C1CCCC[C@H]1C(=O)O)c1ccccc1 (mixture of isomers)
O=C(O)/C=C\C(=O)N1CCc2ccccc2C1CN1C(=O)c2ccccc2C1=O (centres undefined)
NC(=O)[C@H]1CCCC[C@H]1C(=O)N1CCc2ccccc2[C@H]1CN1C(=O)c2ccccc2C1=O
Cc1ccc(S(=O)(=O)NNc2nc(N3CC(O)CC3C(=O)O)nc3ccccc23)cc1 (centres undefined)
